Experimental data as given in US20190119213A1, “OXO-PYRIDINE-DERIVATIVES AS FACTOR XIA INHIBITORS FOR THE TREATMENT OF THROMBOSIS” (BAYER PHARMA AKTIENGESELLSCHAFT, priority 2015, published 2019).

Assays:
human factor XIa = biological target: T1, human factor XIa (Homo sapiens, UniProt P03951); assay: Measurement of FXIa inhibition (fluorogenic peptide substrate); format: biochemical; conditions: factor XIa from Kordia 0.45 nM; substrate Boc-Glu(OBzl)-Ala-Arg-AMC; 30 min at 22° C.
T1 construct: purchased Kordia
Procedure: (§1) The factor XIa inhibition of the inventive substances is determined using a biochemical test system which utilizes the reaction of a peptidic factor XIa substrate to determine the enzymatic activity of human factor XIa. Here, factor XIa cleaves from the peptic factor XIa substrate the C-terminal aminomethylcoumarin (AMC), the fluorescence of which is measured. The determinations are carried out in microtitre plates.
Test substances are dissolved in dimethyl sulphoxide and serially diluted in dimethyl sulphoxide (3000 μM to 0.0078 μM; resulting final concentrations in the test: 50 μM to 0.00013 μM). In each case 1 μl of the diluted substance solutions is placed into the wells of white microtitre plates from Greiner (384 wells). 20 μl of assay buffer (50 mM of Tris/HCl pH 7.4; 100 mM of sodium chloride; 5 mM of calcium chloride; 0.1% of bovine serum albumin) and 20 μl of factor XIa from Kordia (0.45 nM in assay buffer) are then added successively. After 15 min of incubation, the enzyme reaction is started by addition of 20 μl of the factor XIa substrate Boc-Glu(OBzl)-Ala-Arg-AMC dissolved in assay buffer (10 μM in assay buffer) from Bachem, the mixture is incubated at room temperature (22° C.) for 30 min and fluorescence is then measured (excitation: 360 nm, emission: 460 nm). The measured emissions of the test batches with test substance are compared to those of control batches without test substance (only dimethyl sulphoxide instead of test substance in dimethyl sulphoxide), and IC50 values are calculated from the concentration/activity relationships.

human plasma kallikrein = biological target: T2, human plasma kallikrein (Homo sapiens, UniProt P03952); assay: Determination of the plasma kallikrein activity (fluorogenic peptide substrate); format: biochemical; conditions: plasma kallikrein from Kordia 0.6 nM; substrate H-Pro-Phe-Arg-AMC; 30 min at 22° C.
T2 construct: purchased Kordia
Procedure: as §1, with “To determine the plasma kallikrein” for “The factor XIa”, “the” for “the inventive”, “according to the invention,” for “is determined using”, “system is used” for “system”, “plasma kallikrein” for “factor XIa”, “plasma kallikrein.” for “factor XIa.”
Test substances are dissolved in dimethyl sulphoxide and serially diluted in dimethyl sulphoxide (3000 μM to 0.0078 μM; resulting final concentrations in the test: 50 μM to […] each case 1 μl of the diluted substance solutions is placed into the wells of white microtitre plates from Greiner (384 wells). 20 μl of assay buffer (50 mM Tris/HCl pH 7.4; 100 mM sodium chloride solution; 5 mM of calcium chloride solution; 0.1% of bovine serum albumin) and 20 μl of plasma kallikrein from Kordia (0.6 nM in assay buffer) are then added successively. After 15 min of incubation, the enzyme reaction is started by addition of 20 μl of the substrate H-Pro-Phe-Arg-AMC dissolved in assay buffer (10 μM in assay buffer) from Bachem, the mixture is incubated at room temperature (22° C.) for 30 min and fluorescence is then measured (excitation: 360 nm, emission: 460 nm). The measured emissions of the test batches with test substance are compared to those of control batches without test substance (only dimethyl sulphoxide instead of test substance in dimethyl sulphoxide), and IC50 values are calculated from the concentration/activity relationships.

T1 sequence (P03951 388-625 limits assumed): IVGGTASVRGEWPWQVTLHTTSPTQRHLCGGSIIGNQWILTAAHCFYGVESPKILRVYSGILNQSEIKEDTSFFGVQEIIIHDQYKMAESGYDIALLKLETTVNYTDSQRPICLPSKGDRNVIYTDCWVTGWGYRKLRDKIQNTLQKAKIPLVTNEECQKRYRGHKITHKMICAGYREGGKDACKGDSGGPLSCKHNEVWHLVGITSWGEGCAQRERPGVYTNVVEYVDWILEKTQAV
T1 sequence (P03951 19-387 partner limits assumed): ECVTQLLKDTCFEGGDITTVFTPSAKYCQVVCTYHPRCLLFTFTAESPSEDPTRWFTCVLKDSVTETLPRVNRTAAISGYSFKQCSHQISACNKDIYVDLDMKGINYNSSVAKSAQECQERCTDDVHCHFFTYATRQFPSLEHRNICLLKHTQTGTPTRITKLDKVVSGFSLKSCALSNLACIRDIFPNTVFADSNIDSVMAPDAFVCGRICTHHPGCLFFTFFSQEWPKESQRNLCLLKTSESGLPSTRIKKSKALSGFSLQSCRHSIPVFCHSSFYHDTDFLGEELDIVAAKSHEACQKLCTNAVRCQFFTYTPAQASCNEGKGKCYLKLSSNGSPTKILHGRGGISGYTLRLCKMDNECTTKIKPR
T2 sequence (P03952 391-638 limits assumed): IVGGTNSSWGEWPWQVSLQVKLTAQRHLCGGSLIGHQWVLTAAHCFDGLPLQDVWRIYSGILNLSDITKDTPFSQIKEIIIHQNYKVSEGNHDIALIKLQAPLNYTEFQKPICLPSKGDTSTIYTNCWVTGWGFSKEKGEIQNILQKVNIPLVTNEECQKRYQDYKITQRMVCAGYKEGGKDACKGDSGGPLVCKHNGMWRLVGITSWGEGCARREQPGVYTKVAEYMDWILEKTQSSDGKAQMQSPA
T2 sequence (P03952 20-390 partner limits assumed): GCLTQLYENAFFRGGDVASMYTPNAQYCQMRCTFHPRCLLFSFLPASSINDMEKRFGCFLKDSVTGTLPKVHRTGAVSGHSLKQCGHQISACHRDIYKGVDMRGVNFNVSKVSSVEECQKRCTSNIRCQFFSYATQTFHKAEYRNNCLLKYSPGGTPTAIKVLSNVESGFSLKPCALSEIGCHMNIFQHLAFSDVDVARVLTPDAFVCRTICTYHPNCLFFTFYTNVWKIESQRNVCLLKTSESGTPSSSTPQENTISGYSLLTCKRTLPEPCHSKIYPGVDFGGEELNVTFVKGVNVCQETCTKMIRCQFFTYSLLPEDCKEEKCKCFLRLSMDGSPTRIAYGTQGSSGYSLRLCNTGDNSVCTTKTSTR

Row | IC50 (human factor XIa) [nM] | IC50 (human plasma kallikrein) [nM] | Structure (SMILES)
1 | 1.2 | 5.6 | COc1cn(C(CCOC(C)C)C(=O)Nc2ccc(C(=O)O)cc2)c(=O)cc1-c1cc(Cl)ccc1C#N (racemic) [Example 1, 4-({2-[4-(5-Chloro-2-cyanophenyl)-5-methoxy-2-oxopyridin-1(2H)-yl]-4-isopropoxybutanoyl}-amino)benzoic acid (racemate)]
2 | 0.6 | 2.6 | COc1cn(C(CCOC2CCC2)C(=O)Nc2ccc(C(=O)O)cc2)c(=O)cc1-c1cc(Cl)ccc1C#N (racemic) [Example 3, 4-({2-[4-(5-Chloro-2-cyanophenyl)-5-methoxy-2-oxopyridin-1(2H)-yl]-4-(cyclobutyloxy)butanoyl}amino)benzoic acid (racemate)]
3 | 1 | 6.5 | COc1cn(C(CCOC2(C)CCC2)C(=O)Nc2ccc(C(=O)O)cc2)c(=O)cc1-c1cc(Cl)ccc1C#N (racemic) [Example 9, 4-({2-[4-(5-Chloro-2-cyanophenyl)-5-methoxy-2-oxopyridin-1(2H)-yl]-4-[(1-methylcyclobutyl)oxy]butanoyl}amino)benzoic acid (racemate)]
4 | 2.2 | 45 | COc1cn(C(CCOC2(C)CCC2)C(=O)Nc2ccc(C(=O)O)cc2)c(=O)cc1-c1cc(Cl)ccc1OC(F)F (racemic) [Example 11, 4-[(2-{4-[5-Chloro-2-(difluoromethoxy)phenyl]-5-methoxy-2-oxopyridin-1(2H)-yl}-4-[(1-methylcyclobutyl)oxy]butanoyl)amino]benzoic acid (racemate)]
5 | 0.9 | 4.8 | COc1cn([C@@H](CCOC(C)C)C(=O)Nc2ccc(C(=O)O)cc2)c(=O)cc1-c1cc(Cl)ccc1C#N (single isomer, unassigned; enantiomer 2) [Example 2]
6 | 0.4 | 1.4 | COc1cn([C@@H](CCOC2CCC2)C(=O)Nc2ccc(C(=O)O)cc2)c(=O)cc1-c1cc(Cl)ccc1C#N (single isomer, unassigned; enantiomer 2) [Example 4]
7 | 0.3 | 2.2 | COc1cn([C@@H](CCOC(C)(C)C)C(=O)Nc2ccc(C(=O)O)cc2)c(=O)cc1-c1cc(Cl)ccc1C#N (single isomer, unassigned; enantiomer 2) [Example 6]
8 | 1.5 | 29 | COc1cn([C@@H](CCOC(C)(C)C)C(=O)Nc2ccc(C(=O)O)cc2)c(=O)cc1-c1cc(Cl)ccc1OC(F)F (single isomer, unassigned; enantiomer 2) [Example 8]
9 | 0.4 | 2.4 | COc1cn([C@@H](CCOC2(C)CCC2)C(=O)Nc2ccc(C(=O)O)cc2)c(=O)cc1-c1cc(Cl)ccc1C#N (single isomer, unassigned; enantiomer 2) [Example 10]
10 | 1.5 | 27 | COc1cn([C@@H](CCOC2(C)CCC2)C(=O)Nc2ccc(C(=O)O)cc2)c(=O)cc1-c1cc(Cl)ccc1OC(F)F (single isomer, unassigned; enantiomer 2) [Example 12]

Row | Structure (SMILES) | IC50 (human factor XIa) [nM] | IC50 (human plasma kallikrein) [nM]
11 | COc1cn(C(CCOC(C)(C)C)C(=O)Nc2ccc(C(=O)O)cc2)c(=O)cc1-c1cc(Cl)ccc1C#N (racemic) [Example 5, 4-({4-tert-Butoxy-2-[4-(5-chloro-2-cyanophenyl)-5-methoxy-2-oxopyridin-1(2H)-yl]butanoyl}amino)benzoic acid (racemate)] | 0.7 | 3.9
12 | COc1cn(C(CCOC(C)(C)C)C(=O)Nc2ccc(C(=O)O)cc2)c(=O)cc1-c1cc(Cl)ccc1OC(F)F (racemic) [Example 7, 4-[(4-tert-Butoxy-2-{4-[5-chloro-2-(difluoromethoxy)phenyl]-5-methoxy-2-oxopyridin-1(2H)-yl}butanoyl)amino]benzoic acid (racemate)] | 2.9 | 38
